In the supplement of paper PMC13380429:
± gives the standard deviation of the averaged measurements.

Experiments:
Details in all cases: 72 h
HepG2 [1] = assay: cell viability relative to DMSO; higher = less toxic
Vero E6 [2] = assay: as above
Caco-2 [3] = assay: as above
U2OS [4] = assay: as above
Calu-3 [5] = assay: as above
HepG2 [6] = assay: relative viability EC50 (midpoint between 100% and the lowest measured viability); higher = less toxic
Vero E6 [7] = assay: as above
Caco-2 [8] = assay: as above
U2OS [9] = assay: as above
Calu-3 [10] = assay: as above
HepG2 [11] = assay: drug sensitivity score (DSS) for viability; higher = more toxic; extreme values may be limits of the assay
Vero E6 [12] = assay: as above
Caco-2 [13] = assay: as above
U2OS [14] = assay: as above
Calu-3 [15] = assay: as above

SMILES	cell viability (HepG2 [1]; 1 nM)	cell viability (HepG2 [1]; 10 nM)	cell viability (HepG2 [1]; 100 nM)	cell viability (HepG2 [1]; 1000 nM)	cell viability (HepG2 [1]; 10000 nM)	cell viability (Vero E6 [2]; 1 nM)	cell viability (Vero E6 [2]; 10 nM)	cell viability (Vero E6 [2]; 100 nM)	cell viability (Vero E6 [2]; 1000 nM)	cell viability (Vero E6 [2]; 10000 nM)	cell viability (Caco-2 [3]; 1 nM)	cell viability (Caco-2 [3]; 10 nM)	cell viability (Caco-2 [3]; 100 nM)	cell viability (Caco-2 [3]; 1000 nM)	cell viability (Caco-2 [3]; 10000 nM)	cell viability (U2OS [4]; 1 nM)	cell viability (U2OS [4]; 10 nM)	cell viability (U2OS [4]; 100 nM)	cell viability (U2OS [4]; 1000 nM)	cell viability (U2OS [4]; 10000 nM)	cell viability (Calu-3 [5]; 1 nM)	cell viability (Calu-3 [5]; 10 nM)	cell viability (Calu-3 [5]; 100 nM)	cell viability (Calu-3 [5]; 1000 nM)	cell viability (Calu-3 [5]; 10000 nM)	relative viability EC50 (HepG2 [6])	relative viability EC50 (Vero E6 [7])	relative viability EC50 (Caco-2 [8])	relative viability EC50 (U2OS [9])	relative viability EC50 (Calu-3 [10])	drug sensitivity score (HepG2 [11])	drug sensitivity score (Vero E6 [12])	drug sensitivity score (Caco-2 [13])	drug sensitivity score (U2OS [14])	drug sensitivity score (Calu-3 [15])
CNCC[C@@H](Oc1ccccc1C)c1ccccc1 [atomoxetine]	87.3%	98.5%	100%	104%	93.5%	106%	106%	102%	106%	99.1%	99%	96.8%	98.3%	97.8%	92.8%	106%	97.5%	101%	94.8%	101%	106%	104%	98.7%	86%	96.3%	> 10 µM	> 10 µM	> 10 µM	> 10 µM	> 10 µM	0	0	0	0	1.2
CN1[C@@H]2CC[C@H]1C[C@@H](OC(=O)c1cc(Cl)cc(Cl)c1)C2 [bemesetron]	98.7%	101%	91.3%	107%	106%	98.2%	103%	95.8%	99.5%	104%	104%	97.8%	103%	94.9%	82.2%	98.7%	96.7%	101%	98.7%	99.7%	86.5%	87.7%	94.5%	94%	95%	> 10 µM	> 10 µM	> 10 µM	> 10 µM	> 10 µM	0	0	1	0	0
O=C(Oc1cccc2cccnc12)c1ccccc1 [benzoxiquine]	104%	103%	102%	102%	7%	98.5%	101%	99.5%	98.3%	93.8%	102%	99.6%	102%	99.2%	98.1%	99.7%	92.3%	96.3%	92.4%	98.6%	106%	94.3%	95.6%	96%	93.7%	3.26 µM	> 10 µM	> 10 µM	> 10 µM	> 10 µM	5.1	0	0	0	0
COc1cc2c(cc1OC)[C@@]13CCN4CC5=CCO[C@H]6CC(=O)N2[C@H]1[C@H]6[C@H]5C[C@H]43 [brucine]	109%	103%	90.2%	83.6%	96.9%	106%	92.3%	95.2%	99%	98.9%	104%	89.9%	112%	106%	91.7%	96.8%	101%	101%	96.5%	96.9%	110%	101%	91.4%	98%	97.1%	> 10 µM	> 10 µM	> 10 µM	> 10 µM	> 10 µM	2.6	0	0	0	0
CCCC(=O)Nc1ncnc2c1ncn2[C@@H]1O[C@@H]2COP(=O)(O)O[C@H]2[C@H]1OC(=O)CCC [bucladesine]	101%	101%	93.9%	99%	96%	98.5%	104%	97.8%	104%	95.2%	110%	101%	107%	93.3%	91.9%	105%	94.8%	103%	97.2%	100%	100%	92.9%	92.9%	94.3%	108%	> 10 µM	> 10 µM	> 10 µM	> 10 µM	> 10 µM	0	0	0	0	0
CCCC[N+]1(C)[C@@H]2C[C@@H](OC(=O)[C@H](CO)c3ccccc3)C[C@H]1[C@@H]1O[C@@H]12 (stereo not given in full) [butylscopolamine-bromide]	102%	106%	92.9%	102%	115%	97.4%	95.9%	96.5%	95.6%	108%	92.8%	98.3%	104%	94.7%	98.2%	99.1%	94.7%	101%	96.3%	99.7%	110%	83.9%	99.5%	90.9%	106%	> 10 µM	> 10 µM	> 10 µM	> 10 µM	> 10 µM	0	0	0	0	0
NC(=O)N1c2ccccc2C=Cc2ccccc21 [carbamazepine]	107%	110%	88.9%	98.6%	101%	106%	98.4%	98.8%	95.1%	95.7%	104%	96.9%	98.5%	97.2%	102%	101%	97.2%	101%	96.4%	104%	91.2%	91.9%	90.3%	98.4%	98.9%	> 10 µM	> 10 µM	> 10 µM	> 10 µM	> 10 µM	0	0	0	0	0
CCOC(=O)n1ccn(C)c1=S [carbimazole]	94.7%	99.8%	93.3%	90.6%	103%	90.9%	89.5%	91.2%	93.7%	108%	98%	98.7%	100%	104%	100%	99.5%	91%	94.4%	101%	103%	92.4%	95.4%	101%	104%	107%	> 10 µM	> 10 µM	> 10 µM	> 10 µM	> 10 µM	0	0	0	0	0
CC(C)(C(=O)O)c1ccc(C(=O)CCCN2CCC(OC(c3ccccc3)c3ccccc3)CC2)cc1 [carebastine]	107%	97.7%	94.3%	108%	92.9%	111%	106%	95.3%	104%	106%	101%	101%	107%	92.2%	96.6%	95.7%	99.2%	99.4%	93.2%	99.3%	89.7%	88.6%	110%	100%	102%	> 10 µM	> 10 µM	> 10 µM	> 10 µM	> 10 µM	0	0	0	0	0
CN(C)C(=O)N[C@H]1CC[C@H](CCN2CCN(c3cccc(Cl)c3Cl)CC2)CC1 [cariprazine]	93%	91.1%	93.8%	100%	94.7%	97.3%	98.6%	96.8%	104%	95.3%	95.7%	95.2%	96.5%	86.6%	97.2%	100%	102%	98%	95.9%	100%	102%	93%	100%	97.9%	106%	> 10 µM	> 10 µM	> 10 µM	> 10 µM	> 10 µM	0	0	0	0	0
CC1=C(C(=O)O)N2C(=O)[C@@H](NC(=O)[C@H](N)C3=CCC=CC3)[C@H]2SC1 [cephradine]	99.9 ± 3.4%	94.2 ± 3.5%	98 ± 7.6%	102 ± 10%	108 ± 3.1%	95.2 ± 3%	97 ± 3.8%	94.5 ± 3%	98.4 ± 4.1%	99.2 ± 1.1%	96.75 ± 0.92%	100 ± 9.7%	94.8 ± 0.85%	98 ± 3.8%	103 ± 14%	96.4 ± 0.99%	99.7 ± 2.4%	100 ± 3.5%	103.8 ± 0.78%	101.7 ± 0.78%	92.7 ± 0.85%	98.1 ± 5.7%	98.3 ± 2%	106 ± 9.1%	89.2 ± 6%	> 10 µM	> 10 µM	> 10 µM	> 10 µM	> 10 µM	0	0	0	0	0.15 ± 0.21
CCCCCCCCCCCCCCCC[N+](C)(C)C [cetrimonium]	97.9%	93.2%	96.5%	93.6%	28%	96.5%	93.5%	97.7%	87.5%	23.8%	92.7%	95.9%	96.3%	86.6%	18.5%	99%	95%	97.5%	84.6%	14.3%	97.7%	97.8%	109%	83.6%	43.1%	2.43 µM	1.91 µM	1.9 µM	1.83 µM	1.44 µM	5	6.3	6.8	7.3	5.5
C[N+](C)(C)CC[N+]1(C)Cc2c(Cl)c(Cl)c(Cl)c(Cl)c2C1 [chlorisondamine-diiodide]	94%	110%	103%	99.9%	101%	100%	95.5%	95.7%	97.4%	94%	92.1%	93%	99.9%	103%	88.8%	97.2%	96.2%	96.1%	97.5%	92.5%	93.2%	102%	102%	89.8%	100%	> 10 µM	> 10 µM	> 10 µM	> 10 µM	> 10 µM	0	0	0	0	0
Cc1cc(O)ccc1Cl [chlorocresol]	100%	100%	99%	103%	102%	96.2%	103%	100%	111%	99.4%	109%	104%	100%	97.4%	95.1%	105%	99.6%	103%	97.8%	100%	99.8%	92.3%	96.3%	105%	101%	> 10 µM	> 10 µM	> 10 µM	> 10 µM	> 10 µM	0	0	0	0	0
